What was measured:
HepG2 = assay: Antiproliferative activity against human HepG2 cells after 48 hrs by MTT assay; format: functional, cell-based; conditions: HepG2, 48 h
A549 = assay: Antiproliferative activity against human A549 cells after 48 hrs by MTT assay; format: functional, cell-based; conditions: A549, 48 h
MCF7 = assay: Antiproliferative activity against human MCF7 cells after 48 hrs by MTT assay; format: functional, cell-based; conditions: MCF7, 48 h
HCT-116 = assay: Antiproliferative activity against human HCT116 cells after 48 hrs by MTT assay; format: functional, cell-based; conditions: HCT-116, 48 h
L02 = assay: Antiproliferative activity against human L02 cells after 48 hrs by MTT assay; format: cell-based; conditions: L02, 48 h
HUVEC = assay: Antiproliferative activity against human HUVEC cells after 48 hrs by MTT assay; format: cell-based

IC50 (HepG2)	IC50 (A549)	IC50 (MCF7)	IC50 (HCT-116)	SMILES	IC50 (L02)	IC50 (HUVEC)
> 50 µM	> 50 µM	> 50 µM	> 50 µM	N#CC1=C(N)Oc2c(c3nc4ccccc4nc3c3ccccc23)C12C(=O)N(Cc1cnnn1-c1ccccc1Br)c1ccccc12 (configuration not stated)	> 50 µM	> 50 µM
> 50 µM	> 50 µM	> 50 µM	> 50 µM	CCOc1ccccc1-n1nncc1CN1C(=O)C2(C(C#N)=C(N)Oc3c2c2nc4ccccc4nc2c2ccccc32)c2ccccc21 (configuration not stated)	> 50 µM	> 50 µM
> 50 µM	25.2 µM	> 50 µM	> 50 µM	CCOc1ccc(-n2nncc2CN2C(=O)C3(C(C#N)=C(N)Oc4c3c3nc5ccccc5nc3c3ccccc43)c3ccccc32)cc1 (configuration not stated)	> 50 µM	> 50 µM
> 50 µM	> 50 µM	> 50 µM	> 50 µM	Cc1ccc(-n2nncc2CN2C(=O)C3(C(C#N)=C(N)Oc4c3c3nc5ccccc5nc3c3ccccc43)c3ccccc32)c(C)c1 (configuration not stated)	> 50 µM	> 50 µM
> 50 µM	> 50 µM	> 50 µM	> 50 µM	COc1ccccc1-n1nncc1CN1C(=O)C2(C(C#N)=C(N)Oc3c2c2nc4ccccc4nc2c2ccccc32)c2ccccc21 (configuration not stated)	> 50 µM	> 50 µM
> 50 µM	> 50 µM	> 50 µM	45.2 µM	N#CC1=C(N)Oc2c(c3nc4ccccc4nc3c3ccccc23)C12C(=O)N(Cc1cnnn1-c1ccc(N)cc1)c1ccccc12 (configuration not stated)	> 50 µM	> 50 µM
> 50 µM	> 50 µM	> 50 µM	> 50 µM	N#CC1=C(N)Oc2c(c3nc4ccccc4nc3c3ccccc23)C12C(=O)N(Cc1cnnn1-c1cccc(Br)c1)c1ccccc12 (configuration not stated)	> 50 µM	> 50 µM

The remaining lines, values behind:

SMILES	IC50 (HepG2)	IC50 (A549)	IC50 (MCF7)	IC50 (HCT-116)	IC50 (L02)	IC50 (HUVEC)
N#CC1=C(N)Oc2c(c3nc4ccccc4nc3c3ccccc23)C12C(=O)N(Cc1cnnn1-c1cccc(S(N)(=O)=O)c1)c1ccccc12 (configuration not stated)	21.5 µM	44.2 µM	42.5 µM	11.3 µM	> 50 µM	38.6 µM
Cc1ccc(C)c(-n2nncc2CN2C(=O)C3(C(C#N)=C(N)Oc4c(N)cc5nc6ccccc6nc5c43)c3ccccc32)c1 (configuration not stated)	> 50 µM	> 50 µM	> 50 µM	> 50 µM	> 50 µM	> 50 µM
CCOc1ccccc1-n1nncc1CN1C(=O)C2(C(C#N)=C(N)Oc3c(N)cc4nc5ccccc5nc4c32)c2ccccc21 (configuration not stated)	30.5 µM	> 50 µM	> 50 µM	> 50 µM	> 50 µM	> 50 µM
CCOc1ccc(-n2nncc2CN2C(=O)C3(C(C#N)=C(N)Oc4c(N)cc5nc6ccccc6nc5c43)c3ccccc32)cc1 (configuration not stated)	> 50 µM	> 50 µM	26.8 µM	> 50 µM	> 50 µM	> 50 µM
N#CC1=C(N)Oc2c(N)cc3nc4ccccc4nc3c2C12C(=O)N(Cc1cnnn1-c1ccc(F)c(Cl)c1)c1ccccc12 (configuration not stated)	> 50 µM	43.4 µM	17.8 µM	> 50 µM	> 50 µM	> 50 µM
Cc1cc(C)cc(-n2nncc2CN2C(=O)C3(C(C#N)=C(N)Oc4c(N)cc5nc6ccccc6nc5c43)c3ccccc32)c1 (configuration not stated)	> 50 µM	31.2 µM	> 50 µM	> 50 µM	> 50 µM	> 50 µM
N#CC1=C(N)Oc2c(N)cc3nc4ccccc4nc3c2C12C(=O)N(Cc1cnnn1-c1ccc(Cl)cc1)c1ccccc12 (configuration not stated)	> 50 µM	> 50 µM	> 50 µM	> 50 µM	> 50 µM	> 50 µM
N#CC1=C(N)Oc2c(N)cc3nc4ccccc4nc3c2C12C(=O)N(Cc1cnnn1-c1ccc(Cl)cc1Cl)c1ccccc12 (configuration not stated)	> 50 µM	> 50 µM	> 50 µM	> 50 µM	> 50 µM	> 50 µM
N#CC1=C(N)Oc2c(N)cc3nc4ccccc4nc3c2C12C(=O)N(Cc1cnnn1-c1ccccc1Br)c1ccccc12 (configuration not stated)	38 µM	27.4 µM	30.7 µM	12.4 µM	29.2 µM	34.2 µM
CCc1cccc(CC)c1-n1nncc1CN1C(=O)C2(C(C#N)=C(N)Oc3c(N)cc4nc5ccccc5nc4c32)c2ccccc21 (configuration not stated)	16.5 µM	> 50 µM	> 50 µM	37.6 µM	> 50 µM	> 50 µM
N#CC1=C(N)Oc2c(N)cc3nc4ccccc4nc3c2C12C(=O)N(Cc1cnnn1-c1cccc(Br)c1)c1ccccc12 (configuration not stated)	> 50 µM	18.9 µM	> 50 µM	26.1 µM	> 50 µM	> 50 µM
Cc1ccccc1-n1nncc1CN1C(=O)C2(C(C#N)=C(N)Oc3c(N)cc4nc5ccccc5nc4c32)c2ccccc21 (configuration not stated)	> 50 µM	31.7 µM	> 50 µM	> 50 µM	> 50 µM	> 50 µM
N#CC1=C(N)Oc2c(N)cc3nc4ccccc4nc3c2C12C(=O)N(Cc1cnnn1-c1c(Cl)cc(Cl)cc1Cl)c1ccccc12 (configuration not stated)	37.8 µM	> 50 µM	37.8 µM	12.1 µM	> 50 µM	18.3 µM
N#CC1=C(N)Oc2c(N)cc3nc4ccccc4nc3c2C12C(=O)N(Cc1cnnn1-c1ccc([N+](=O)[O-])cc1[N+](=O)[O-])c1ccccc12 (configuration not stated)	18.4 µM	> 50 µM	20.9 µM	23.9 µM	22.8 µM	> 50 µM
N#CC1=C(N)Oc2c(c3nc4ccccc4nc3c3ccccc23)C12C(=O)N(Cc1cnnn1-c1ccc(S(N)(=O)=O)cc1)c1ccccc12 (configuration not stated)	42.2 µM	> 50 µM	> 50 µM	31.2 µM	> 50 µM	> 50 µM

From ChEMBL document CHEMBL4033663, “Design, combinatorial synthesis and biological evaluations of novel 3-amino-1'-((1-aryl-1H-1,2,3-triazol-5-yl)methyl)-2'-oxospiro[benzo[a] pyrano[2,3-c]phenazine-1,3'-indoline]-2-carbonitrile antitumor hybrid molecules” (Eur J Med Chem, 2017)
